In patent US8193235B2, “Compositions and methods for establishing and maintaining stem cells in an undifferentiated state” (University of Kansas, priority 2009, dated 2012):

Legend:
PKC β = test system: PKC β; design: key: X^1: PKC β1; X^2: PKC β2; settings: X = isoform inhibited; superscript 1 PKC β1, 2 PKC β2; cited from earlier work
E14 ES cells [1] = assay: ES cell culture in the absence of LIF (undifferentiated state, marker expression); type: cell-based, mouse; settings: mouse ES cells, without LIF
Method: (§1) E14 ES Cell Cultures. Cells were grown in ES-IMDM media (Lonza, Walkersville, Md.) in a feeder-free condition. ES-IMDM was supplemented with 15% serum, 10^5 U/100 ml of LIF (ESGRO, Millipore, Calif.) and 0.0124% monothioglycerol (MTG; Sigma Aldrich). Cells were grown for 3-5 days with change of medium every day. For inducing differentiation in monolayer culture and to determine the effect of Gö6983 in preventing differentiation, E14 cells were cultured on gelatin-coated plastics for 8 days without LIF. Details of experiments performed at clonal-density are described herein. To maintain E14 cells with Gö6983, serum supplemented ES-IMDM was used in the presence of 5 μM Gö6983 and was passed after every 3-5 days. For all assays involving elucidation of different signaling mechanism responsible for maintenance of pluripotency, cells from a ˜70% confluent ES culture plate were washed two times with 1× phosphate-buffered saline (PBS), trypsinized and plated on a 6-well tissue culture plate and treated with or without LIF or Gö6983 or different inhibitors for ˜10 hours followed by preparation of protein lysates and RNA. The PKCζ knocked-down E14 cells that were generated in this study were maintained in serum supplemented ES-IMDM on gelatin-coated plates in the absence of Gö6983 or LIF or any other inhibitor and passed after 3-5 days. For the experiments herein, cells were continuously cultured at least for 5 consecutive passages (>18 days) on gelatin-coated plates without significant differentiation.
Quantitative RT-PCR Analysis. RNA was extracted from different cell samples with TRIZOL reagent (Invitrogen). cDNA was prepared by annealing RNA (1 μg) with 250 ng of a 5:1 mixture of random and oligo(dT) primers heated at 68° C. for 10 minutes. This was followed by incubation with Moloney murine leukemia virus reverse transcriptase (50 units) (Invitrogen, Carlsbad, Calif.) combined with 10 mM DTT, RNasin (PROMEGA, Madison, Wis.), and 0.5 mM dNTPs at 42° C. for 1 hour. Reactions were diluted to a final volume of 100 μl and heat inactivated at 97° C. for 5 minutes. Twenty μl PCR reactions contained 2 μl cDNA, 10 μl SYBR Green Master Mix (Applied Biosystems, Foster City, Calif.) and corresponding primer sets. Relative expression levels were determined from a standard curve of serial dilutions of proliferating ES cell cDNA samples and were normalized to the expression of glyceraldehyde-3-phosphate dehydrogenase (GAPDH). At least three independent experiments were done for each set of data.
Immunostaining. Immunostaining of Oct4, and Nanog expression was performed using standard protocols. Briefly, ES cells were fixed in 4% paraformaldehyde/4% sucrose, permeabilized with 0.1% TRITON X 100 (Sigma). Cells were blocked by adding 1% fish gelatin (Sigma, St. Louis, Mo.) and incubated overnight at 4° C. with 200 μl of primary antibodies. Fluorescent-conjugated secondary antibodies (ALEXA FLUOR 488, and ALEXA FLUOR 568, Molecular Probes, Invitrogen) were used at 1:250 dilutions to visualize cells. Images were captured using a LEICA fluorescence microscope.

c-Myc = assay: GSK-3β-mediated phosphorylation of c-Myc at T58; type: cell-based, mouse; settings: added in Gö6983 culture condition
ERK1/2 = ERK1/2 phosphorylation in ES cells; type: cell-based, mouse; settings: combination of Gö6983 and PD0325901
Method: as §1, with “For the experiments herein, cells were continuously cultured at least for 5 consecutive passages (>18 days) on gelatin-coated plates without significant differentiation.” left out

p90Rsk1 (Rsk1) = assay: Phosphorylation of p90Rsk1; type: cell-based, mouse; settings: added to Gö6983-treated cells
Method: Western Blot Analysis. Whole cell lysates were prepared in SDS-gel loading buffer and resolved by 10% PAGE. The antibodies used for this study included β-actin Clone AC-15 from Sigma; p-STAT3 (Tyr705), p-p44/42 MAPK (tyr202/tyr204), p44/42 MAPK, GSK3β, Phospho Akt (Ser473), Akt, p-NFκβ p65 (Ser536), c-Myc, p-c-Myc (Thr58/Ser62), p-p90RSK (Thr359/Ser363), RSK1, Suz12 (D39F6), and Ezh2 (AC22) from Cell Signaling Technology; STAT3 (C-20), Oct-4 (C-10), Nanog (M-149), PKC α (C-20), PKC βI (C-16), PKC βII (C-18), PKC γ (C-19), PKC δ (C-20), PKC ζ (c-20), p-PKC ζ (Thr 410)-R, p-NFκβ p65 (ser311), and RelA (p65) from Santa Cruz Biotechnology; p-LGL1/LGL2 (S650/S654), SSEA4and H3K4Me3 from Abcam; LGL2 (M06), clone 4G2 from Abnova; β-Catenin from BD Transduction Laboratories, and H3K27Me3 and H3K9Me3 from Millipore.

E14 ES cells [2] = assay: ES cell differentiation on collagen IV and with retinoic acid; type: cell-based, mouse; settings: absence of LIF
Description: ES Cell Differentiation on Collagen-IV and With Retinoic Acid. To differentiate ES cells in monolayer culture on collagen IV, around 3×10^4 cells per well were transferred to collagen IV-coated 6-well plates (BD Biosciences, Franklin Lakes, N.J.) cultured for 5 days in ES differentiation medium containing DMEM (Invitrogen), 15% FBS (selected for endothelial differentiation, Stem Cell Technologies, Vancouver, BC), sodium pyruvate and L-glutamine with or without LIF and Gö6983, and were recovered by cell dissociation buffer (BD Biosciences, Franklin Lakes, N.J.). For culturing multiple passages with Gö6983 on collagen-IV, the recovered cells were again plated at a density of ˜3×10^4 cells per well and cultured again for 5 days. […] For RA-induced differentiation on monolayer culture, ES cells were treated with all-trans-retinoic acid (Sigma, St. Louis, Mo.) in ethanol at a concentration of 1 μM with or without LIF and Gö6983 for 6 days followed by study of expression of pluripotency markers (by immunofluorescence or western blot or RT-PCR analysis).

mESCs = assay: Gö6983-mediated inhibition of mESC differentiation in presence of pathway inhibitors; type: cell-based, mouse; settings: added to Gö6983 culture
Method: Inhibitors. Gö6983 was purchased from three different companies (Sigma, St. Louis, Mo.; EMD Chemicals Inc.; and Tocris Biosciences) for validation. In all experiments except the concentration profile, Gö6983 was used at 5 μM final concentration. […] Rottlerin (0.1-5 μM), and RO-318425 (0.1-5 μM) were purchased from EMD Chemicals. Jak Inhibitor I (10 μM), PD0325901 (1 μM) and AKT inhibitor IX (10 μM) were from Calbiochem and CHIR99021 (3 μM) was purchased from Stemgent.
E14 ES Cell Cultures. Cells were grown in ES-IMDM media (Lonza, Walkersville, Md.) in a feeder-free condition. ES-IMDM was supplemented with 15% serum, 10^5 U/100 ml of LIF (ESGRO, Millipore, Calif.) and 0.0124% monothioglycerol (MTG; Sigma Aldrich). Cells were grown for 3-5 days with change of medium every day. For inducing differentiation in monolayer culture and to determine the effect of Gö6983 in preventing differentiation, E14 cells were cultured on gelatin-coated plastics for 8 days without LIF. Details of experiments performed at clonal-density are described herein. To maintain E14 cells with Gö6983, serum supplemented ES-IMDM was used in the presence of 5 μM Gö6983 and was passed after every 3-5 days. […]

Akt = Akt phosphorylation in mESCs; type: cell-based, mouse
Method: as §1, with “For the experiments herein, cells were continuously cultured at least for 5 consecutive passages (>18 days) on gelatin-coated plates without significant differentiation.” left out

Compound: CN(C)CCCn1cc(C2=C(c3c[nH]c4ccccc34)C(=O)NC2=O)c2ccccc21 [Bisindolylmaleimide I]
- Isoform Specificity β (PKC β): X^1
- ES cell differentiation in the absence of LIF (E14 ES cells [1]): able to inhibit ES cell differentiation, albeit at a lower efficiency than Gö6983

Compound: Cc1c[nH]c(-c2cnc(NCCNc3ccc(C#N)cn3)nc2-c2ccc(Cl)cc2Cl)n1 [CHIR99021]
- c-Myc phosphorylation (c-Myc): abolished

Compound: Cn1c2ccccc2c2c3c(c4c5ccccc5n(CCC#N)c4c21)CNC3=O [Gö6976]
- Isoform Specificity β (PKC β): X^2
- ES cell differentiation in the absence of LIF (E14 ES cells [1]): could not prevent differentiation

Compound: O=C(NOC[C@H](O)CO)c1ccc(F)c(F)c1Nc1ccc(I)cc1F [PD0325901]
- ERK1/2 phosphorylation (ERK1/2): almost completely inhibited
- Rsk1 phosphorylation (p90Rsk1 (Rsk1)): abolished

Compound: Cn1cc(C2=C(c3c4n(c5ccccc35)CCC(CN)C4)C(=O)NC2=O)c2ccccc21 (stereo not drawn) [Ro-31-8425]
- ES cell differentiation in the absence of LIF (E14 ES cells [1]): could not prevent differentiation

Compound: CC(=O)c1c(O)c(C)c(O)c(Cc2c(O)c3c(c(C(=O)/C=C/c4ccccc4)c2O)OC(C)(C)C=C3)c1O [Rottlerin]
- ES cell differentiation in the absence of LIF (E14 ES cells [1]): could not prevent differentiation

Compound: N#CC(=C(/N)Sc1ccccc1N)/C(C#N)=C(/N)Sc1ccccc1N [U0216]
- differentiation of ES cells on collagen IV (E14 ES cells [2]): failed to block differentiation

Compound: Jak-Inhibitor-I
- effect of added inhibitor on Gö6983-mediated inhibition of mESC differentiation / maintenance of self-renewal (mESCs): ineffective

Compound: LIF: cytokine leukemia inhibitory factor, activates STAT3
- Akt phosphorylation (Akt): induced
